One test concerns Erysiphe graminis. The test can be described thus: Foliar fungal disease test on Erysiphe graminis, plants inoculated 24 hours before treatment (Table V). In kind it is in vivo. Further details: key: 4: no disease; 3: trace −5% of disease on untreated plants; 6-25% of disease on untreated plants; 1: 26-59% of disease on untreated plants; 60-100% of disease on untreated plants. The following applies: plants inoculated 24 hours before treatment.

Test [1] deals with foliar fungal diseases of plants. In kind it is in vivo. The following applies: applied to soil (roots) and foliage one or two days before inoculation; for disease control grading, CERCOSPORA ARACHIDICOLA (PEANUT): Cercospora arachidicola on peanut; for disease control grading, P[…] (RICE): P[…] on rice; for disease control grading, PH[…] (TOMATO): Ph[…] on tomato; for disease control grading, PUCCINIA RECONDITA (WHEAT): Puccinia recondita on wheat; for disease control grading, VENTURIA INAEQUALIS (APPLE): Venturia inaequalis on apple; for disease control grading, […] (VINE): […] on vine. Also noted: key to disease control grading, […] (VINE): 4: no disease; 3: trace −5% of disease on untreated plants; key to disease control grading, PUCCINIA RECONDITA (WHEAT) / disease control grading, VENTURIA INAEQUALIS (APPLE) / disease control grading, CERCOSPORA ARACHIDICOLA (PEANUT) / disease control grading, PH[…] (TOMATO) / disease control grading, P[…] (RICE): 4: no disease; 3: trace −5% of disease on untreated plants; 6-25% of disease on untreated plants; 1: 26-59% of disease on untreated plants; 60-100% of disease on untreated plants.

`CO/C=C(/C(=O)OC)c1ccccc1COc1cccc(C)c1` [164 (Table I)]: the “disease control grading, ERYSIPHE GRAMINIS (BARLEY)” value (“disease control grading … (BARLEY)” below) in the test with Erysiphe graminis is given as 4. Moreover, in test [1], the “disease control grading, CERCOSPORA ARACHIDICOLA (PEANUT)” value (“disease control grading … (PEANUT)” below) is recorded as 4; the “disease control grading, P[…] (RICE)” value turned out to be 4; the “disease control grading, PH[…] (TOMATO)” value is 3 (trace −5% of disease on untreated plants); the “disease control grading, PUCCINIA RECONDITA (WHEAT)” value (“disease control grading … (WHEAT)” below) is on record as 4. Moreover, in test [1], the “disease control grading, VENTURIA INAEQUALIS (APPLE)” value (shortened to “disease control grading … (APPLE)”) is 4 and the “disease control grading, […] (VINE)” value was determined as 4.
Turning to `CO/C=C(/C(=O)OC)c1ccccc1COc1ccc(C#N)cc1` [38 (Table I)], the “disease control grading … (BARLEY)” value in the test on Erysiphe graminis is 4. Moreover, in test [1], the “disease control grading … (PEANUT)” value was 4; the “disease control grading, P[…] (RICE)” value was 0 (60-100% of disease on untreated plants); the “disease control grading, PH[…] (TOMATO)” value was 4; the “disease control grading … (WHEAT)” value is listed as 4. Besides, in test [1], the “disease control grading … (APPLE)” value amounted to 4 and the “disease control grading, […] (VINE)” value amounted to 4.
Regarding `CO/C=C(/C(=O)OC)c1ccccc1COc1cccc(F)c1` [155 (Table I)], the “disease control grading … (BARLEY)” value with Erysiphe graminis was 4. For the same compound, in test [1], the “disease control grading … (PEANUT)” value was 4; the “disease control grading, P[…] (RICE)” value turned out to be 4; the “disease control grading, PH[…] (TOMATO)” value is reported as 4; the “disease control grading … (WHEAT)” value worked out at 4. Moreover, in test [1], the “disease control grading … (APPLE)” value was 4 and the “disease control grading, […] (VINE)” value stood at 4.
On to `CO/C=C(/C(=O)OC)c1ccccc1COc1cccc(CO)c1` [178 (Table I)], for which the “disease control grading … (BARLEY)” value in the test on Erysiphe graminis is reported as 0 (60-100% of disease on untreated plants). For the same compound, in test [1], the “disease control grading … (PEANUT)” value is reported as 3 (trace −5% of disease on untreated plants); the “disease control grading, P[…] (RICE)” value was 2 (6-25% of disease on untreated plants); the “disease control grading, PH[…] (TOMATO)” value is 2 (6-25% of disease on untreated plants); the “disease control grading … (WHEAT)” value was 3 (trace −5% of disease on untreated plants). Moreover, in test [1], the “disease control grading … (APPLE)” value is reported as 0 (60-100% of disease on untreated plants) and the “disease control grading, […] (VINE)” value is recorded as 4.
In the case of `CO/C=C(/C(=O)OC)c1ccccc1COc1cccc(Oc2cccc(C)c2)c1` [181 (Table I)], the “disease control grading … (BARLEY)” value with Erysiphe graminis turned out to be 4. Also, in test [1], the “disease control grading … (PEANUT)” value was 4; the “disease control grading, P[…] (RICE)” value was 3 (trace −5% of disease on untreated plants); the “disease control grading, PH[…] (TOMATO)” value came to 4; the “disease control grading … (WHEAT)” value was found to be 4. Besides, in test [1], the “disease control grading … (APPLE)” value worked out at 4 and the “disease control grading, […] (VINE)” value was 4.
Turning to `CO/C=C(/C(=O)OC)c1ccccc1COc1cc(C(F)(F)F)ccn1` [174 (Table I)], the “disease control grading … (BARLEY)” value in the test with Erysiphe graminis amounted to 4. Also, in test [1], the “disease control grading … (PEANUT)” value is 4; the “disease control grading, P[…] (RICE)” value is listed as 0 (60-100% of disease on untreated plants); the “disease control grading, PH[…] (TOMATO)” value amounted to 4; the “disease control grading … (WHEAT)” value came out at 4. Also, in test [1], the “disease control grading … (APPLE)” value was 4 and the “disease control grading, […] (VINE)” value was found to be 4.
For the compound `CO/C=C(/C(=O)OC)c1ccccc1COc1cccc(Oc2ccccc2)n1` [185 (Table I)], the “disease control grading … (BARLEY)” value with Erysiphe graminis is on record as 4. Moreover, in test [1], the “disease control grading … (PEANUT)” value is 4; the “disease control grading, P[…] (RICE)” value is recorded as 4; the “disease control grading, PH[…] (TOMATO)” value was found to be 4; the “disease control grading … (WHEAT)” value is 4. In addition, in test [1], the “disease control grading … (APPLE)” value is on record as 2 (6-25% of disease on untreated plants) and the “disease control grading, […] (VINE)” value is 4.
Turning to `CO/C=C(/C(=O)OC)c1ccccc1COc1c(Cl)cccc1Cl` [44 (Table I)], the “disease control grading … (BARLEY)” value with Erysiphe graminis is 4. In addition, in test [1], the “disease control grading … (PEANUT)” value is given as 3 (trace −5% of disease on untreated plants); the “disease control grading, P[…] (RICE)” value is recorded as 2 (6-25% of disease on untreated plants); the “disease control grading, PH[…] (TOMATO)” value is 3 (trace −5% of disease on untreated plants); the “disease control grading … (WHEAT)” value is 4. Besides, in test [1], the “disease control grading … (APPLE)” value was 4 and the “disease control grading, […] (VINE)” value is reported as 4.
For the compound `CO/C=C(/C(=O)OC)c1ccccc1COc1cccc(-c2cccc(OC)c2)c1` [172 (Table I)], the “disease control grading … (BARLEY)” value in the test with Erysiphe graminis came out at 4. In test [1], the “disease control grading … (PEANUT)” value is listed as 4; the “disease control grading, P[…] (RICE)” value was 0 (60-100% of disease on untreated plants); the “disease control grading, PH[…] (TOMATO)” value came out at 4; the “disease control grading … (WHEAT)” value was 4. In test [1], the “disease control grading … (APPLE)” value is on record as 4 and the “disease control grading, […] (VINE)” value was 4.
For `CO/C=C(/C(=O)OC)c1ccccc1COc1cccc(Oc2ccccc2OC)c1` [173 (Table I)], in the test on Erysiphe graminis, the “disease control grading … (BARLEY)” value was 3 (trace −5% of disease on untreated plants). Besides, in test [1], the “disease control grading … (PEANUT)” value worked out at 4; the “disease control grading, P[…] (RICE)” value was 0 (60-100% of disease on untreated plants); the “disease control grading, PH[…] (TOMATO)” value is reported as 4; the “disease control grading … (WHEAT)” value was 4. In test [1], the “disease control grading … (APPLE)” value is 4 and the “disease control grading, […] (VINE)” value was 4.
As to `CO/C=C(/C(=O)OC)c1ccccc1COc1ccccc1Br` [24 (Table I)], the “disease control grading … (BARLEY)” value in the test with Erysiphe graminis turned out to be 4. In test [1], the “disease control grading … (PEANUT)” value is given as 4; the “disease control grading, P[…] (RICE)” value is reported as 4; the “disease control grading, PH[…] (TOMATO)” value is recorded as 4; the “disease control grading … (WHEAT)” value is 4. Further, in test [1], the “disease control grading … (APPLE)” value came to 4 and the “disease control grading, […] (VINE)” value stood at 4.
`CO/C=C(/C(=O)OC)c1ccccc1COc1cccc(Oc2cccc(Br)c2)c1` [183 (Table I)]: the “disease control grading … (BARLEY)” value in the test on Erysiphe graminis was 4. In test [1], the “disease control grading … (PEANUT)” value worked out at 4; the “disease control grading, P[…] (RICE)” value is 3 (trace −5% of disease on untreated plants); the “disease control grading, PH[…] (TOMATO)” value was found to be 4; the “disease control grading … (WHEAT)” value is reported as 0 (60-100% of disease on untreated plants). Further, in test [1], the “disease control grading … (APPLE)” value is listed as 4 and the “disease control grading, […] (VINE)” value worked out at 4.
With `CO/C=C(/C(=O)OC)c1ccccc1COc1cccc(N)c1` [34 (Table I)], the “disease control grading … (BARLEY)” value in the test on Erysiphe graminis was 0 (60-100% of disease on untreated plants). In addition, in test [1], the “disease control grading … (PEANUT)” value was 0 (60-100% of disease on untreated plants); the “disease control grading, P[…] (RICE)” value was 0 (60-100% of disease on untreated plants); the “disease control grading, PH[…] (TOMATO)” value was found to be 4; the “disease control grading … (WHEAT)” value is 3 (trace −5% of disease on untreated plants). In test [1], the “disease control grading … (APPLE)” value is listed as 3 (trace −5% of disease on untreated plants) and the “disease control grading, […] (VINE)” value is recorded as 4.

These data come from patent US6653258B1 (priority 1987, dated 2003).
